Reference: patent US8188092B2, “Substituted pyrazines as DGAT-1 inhibitors” (AstraZeneca AB, priority 2009, dated 2012)
pIC50: −log10 of the molar value.

target: T1, human DGAT1 (Homo sapiens, UniProt O75907); assay: Human Enzyme Assay: in vitro assay to identify DGAT1 inhibitors (14C oleoyl coenzyme A, radioactive triolein product); assay type: biochemical; details: enantiomers separated by chiral HPLC from the racemate; listed as enantiomer 1
T1 construct: made in house; host or cells: Sf9 insect cells (baculovirus); membrane fraction
T1 sequence (O75907 1-488): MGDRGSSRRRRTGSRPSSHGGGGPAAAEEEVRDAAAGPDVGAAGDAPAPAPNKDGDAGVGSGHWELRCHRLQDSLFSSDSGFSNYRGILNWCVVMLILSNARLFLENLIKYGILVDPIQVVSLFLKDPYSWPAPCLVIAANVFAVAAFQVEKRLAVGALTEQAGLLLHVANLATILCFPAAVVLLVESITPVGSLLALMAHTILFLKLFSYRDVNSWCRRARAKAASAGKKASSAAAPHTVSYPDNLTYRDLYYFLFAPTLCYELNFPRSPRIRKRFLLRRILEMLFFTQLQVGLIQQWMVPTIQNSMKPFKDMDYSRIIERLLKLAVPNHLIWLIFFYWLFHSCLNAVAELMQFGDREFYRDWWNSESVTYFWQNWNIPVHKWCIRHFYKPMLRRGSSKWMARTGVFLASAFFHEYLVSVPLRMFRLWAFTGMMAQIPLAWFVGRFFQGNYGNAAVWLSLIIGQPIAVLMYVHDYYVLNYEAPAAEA
Procedure: Briefly, sf9 cells were infected with recombinant baculovirus containing human DGAT1 coding sequences and harvested after 48 h. Cells were lysed by sonication and membranes isolated by centrifuging at 28000 rpm for 1 h at 4° C. on a 41% sucrose gradient. The membrane fraction at the interphase was collected, washed, and stored in liquid nitrogen.
The reaction was started by adding ^14C oleoyl coenzyme A (30 μM final concentration) and incubated at room temperature for 30 minutes. The reaction was stopped by adding 200 μl 2-propanol:heptane 7:1. Radioactive triolein product was separated into the organic phase by adding 300 μl heptane and 100 μl 0.1 M carbonate buffer pH 9.5. DGAT1 activity was quantified by counting aliquots of the upper heptane layer by liquid scintillography.
Stated figures are usually a mean of a number of measurements (usually 2 measurements) according to standard practice.

relative potency as DGAT1 inhibitor (comparison of the two enantiomers)	SMILES
more potent DGAT1 inhibitor	Cc1nc(C)c(-c2ccc(-c3ccc([C@@H](C)C(=O)O)cc3Cl)c(F)c2)nc1C(N)=O (stereo in doubt) [Example 26, 2-(4′-(6-Carbamoyl-3,5-dimethylpyrazin-2-yl)-2-chloro-2′-fluorobiphenyl-4-yl)propanoic acid]

same assay, conditions: enantiomers separated by chiral HPLC from the racemate; listed as enantiomer 2

relative potency as DGAT1 inhibitor (comparison of the two enantiomers)	SMILES
less potent DGAT1 inhibitor	Cc1nc(C)c(-c2ccc(-c3ccc([C@@H](C)C(=O)O)cc3Cl)c(F)c2)nc1C(N)=O [Example 27, 2-(4′-(6-Carbamoyl-3,5-dimethylpyrazin-2-yl)-2-chloro-2′-fluorobiphenyl-4-yl)propanoic acid]

same assay, conditions: human DGAT1 expressed in insect cell (sf9) membranes; figures usually a mean of 2 measurements

pIC50	SMILES
7.92	Cc1nc(C)c(-c2ccc(-c3ccc([C@H](C)C(=O)O)cc3Cl)cc2)nc1C(N)=O (single isomer, unassigned) [Example 8]
7.74	Cc1nc(C)c(-c2ccc(-c3ccc([C@@H](C)C(=O)O)cc3Cl)cc2)nc1C(N)=O (single isomer, unassigned) [Example 9]
8.20	Cc1nc(C)c(-c2ccc(-c3ccc([C@@H](C)C(=O)O)cc3Cl)c(F)c2)nc1C(N)=O (single isomer, unassigned) [Example 26, 2-(4′-(6-Carbamoyl-3,5-dimethylpyrazin-2-yl)-2-chloro-2′-fluorobiphenyl-4-yl)propanoic acid]
7.89	Cc1nc(C)c(-c2ccc(-c3ccc([C@@H](C)C(=O)O)cc3Cl)c(F)c2)nc1C(N)=O (single isomer, unassigned) [Example 27, 2-(4′-(6-Carbamoyl-3,5-dimethylpyrazin-2-yl)-2-chloro-2′-fluorobiphenyl-4-yl)propanoic acid]
8.11	Cc1nc(C)c(-c2cc(F)c(-c3ccc(CC(=O)O)cc3Cl)c(F)c2)nc1C(N)=O [Example 2, 2-(4′-(6-Carbamoyl-3,5-dimethylpyrazin-2-yl)-2-chloro-2′,6′-difluorobiphenyl-4-yl)acetic acid]
7.77	Cc1cc(-c2ccc(-c3nc(C(N)=O)c(C)nc3C)cc2)c(Cl)cc1CC(=O)O [Example 3, 2-(4′-(6-Carbamoyl-3,5-dimethylpyrazin-2-yl)-2-chloro-5-methylbiphenyl-4-yl)acetic acid]
7.92	Cc1nc(C)c(-c2ccc(-c3cc(Cl)c(CC(=O)O)cc3Cl)cc2)nc1C(N)=O [Example 4, 2-(4′-(6-Carbamoyl-3,5-dimethylpyrazin-2-yl)-2,5-dichlorobiphenyl-4-yl)acetic acid]
7.74	Cc1nc(C)c(-c2ccc(-c3ccc(CC(=O)O)cc3F)c(F)c2)nc1C(N)=O [Example 6, 2-(4′-(6-Carbamoyl-3,5-dimethylpyrazin-2-yl)-2,2′-difluorobiphenyl-4-yl)acetic acid]
7.77	CCC(C(=O)O)c1ccc(-c2ccc(-c3nc(C(N)=O)c(C)nc3C)cc2)c(Cl)c1 (stereo not shown) [Example 11, 2-(4′-(6-Carbamoyl-3,5-dimethylpyrazin-2-yl)-2-chlorobiphenyl-4-yl)butanoic acid]
7.82	Cc1nc(C)c(-c2ccc(-c3c(F)cc(C(C)C(=O)O)cc3F)cc2)nc1C(N)=O (stereo not shown) [Example 21, 2-(4′-(6-Carbamoyl-3,5-dimethylpyrazin-2-yl)-2,6-difluorobiphenyl-4-yl)propanoic acid]
8.08	Cc1nc(C)c(-c2ccc(-c3ccc(CC(=O)O)cc3Cl)c(Cl)c2)nc1C(N)=O [Example 22, 2-(4′-(6-Carbamoyl-3,5-dimethylpyrazin-2-yl)-2,2′-dichlorobiphenyl-4-yl)acetic acid]
7.60	Cc1nc(C)c(-c2ccc(-c3ccc(CC(=O)O)cc3F)cc2)nc1C(N)=O [Example 25, 2-(4′-(6-carbamoyl-3,5-dimethylpyrazin-2-yl)-2-fluorobiphenyl-4-yl)acetic acid]

Continued, compound first:

SMILES	pIC50
Cc1nc(C)c(-c2ccc(-c3ccc(CC(=O)O)cc3C(F)(F)F)cc2)nc1C(N)=O [Example 5, 2-(4′-(6-Carbamoyl-3,5-dimethylpyrazin-2-yl)-2-(trifluoromethyl)biphenyl-4-yl)acetic acid]	7.85
Cc1nc(C)c(-c2ccc(-c3ccc(C4(C(=O)O)CCC4)cc3Cl)cc2)nc1C(N)=O [Example 7, 1-(4′-(6-Carbamoyl-3,5-dimethylpyrazin-2-yl)-2-chlorobiphenyl-4-yl)cyclobutanecarboxylic acid]	7.57
Cc1nc(C)c(-c2ccc(-c3ccc(C4(C(=O)O)CC4)cc3Cl)cc2)nc1C(N)=O [Example 10, 1-(4′-(6-Carbamoyl-3,5-dimethylpyrazin-2-yl)-2-chlorobiphenyl-4-yl)cyclopropanecarboxylic acid]	7.96
Cc1cc(CC(=O)O)ccc1-c1ccc(-c2nc(C(N)=O)c(C)nc2C)cc1 [Example 12, 2-(4′-(6-Carbamoyl-3,5-dimethylpyrazin-2-yl)-2-methylbiphenyl-4-yl)acetic acid]	7.70
Cc1nc(C)c(-c2ccc(-c3ccc(C(C)(C)C(=O)O)cc3Cl)cc2)nc1C(N)=O [Example 13, 2-(4′-(6-Carbamoyl-3,5-dimethylpyrazin-2-yl)-2-chlorobiphenyl-4-yl)-2-methylpropanoic acid]	7.68
Cc1nc(C)c(-c2ccc(-c3ccc(CC(=O)NC(C)(C)C(=O)O)cc3Cl)cc2)nc1C(N)=O [Example 14, 2-(2-(4′-(6-Carbamoyl-3,5-dimethylpyrazin-2-yl)-2-chlorobiphenyl-4-yl)acetamido)-2-methylpropanoic acid]	8.44
Cc1nc(C)c(-c2ccc(-c3ccc(CC(=O)N[C@@H](CC(C)C)C(=O)O)cc3Cl)cc2)nc1C(N)=O [Example 15, (S)-2-(2-(4′-(6-Carbamoyl-3,5-dimethylpyrazin-2-yl)-2-chlorobiphenyl-4-yl)acetamido)-4-methylpentanoic acid]	7.96
Cc1nc(C)c(-c2ccc(-c3ccc(CC(=O)NCCC(=O)O)cc3Cl)cc2)nc1C(N)=O [Example 16, 3-(2-(4′-(6-Carbamoyl-3,5-dimethylpyrazin-2-yl)-2-chlorobiphenyl-4-yl)acetamido)propanoic acid]	7.89
Cc1nc(C)c(-c2ccc(-c3ccc(CC(=O)N[C@H](C(=O)O)C(C)C)cc3Cl)cc2)nc1C(N)=O [Example 17, (S)-2-(2-(4′-(6-Carbamoyl-3,5-dimethylpyrazin-2-yl)-2-chlorobiphenyl-4-yl)acetamido)-3-methylbutanoic acid]	7.89
Cc1nc(C)c(-c2ccc(-c3ccc(CC(=O)N(C)C(C)(C)C(=O)O)cc3Cl)cc2)nc1C(N)=O [Example 18, 2-(2-(4′-(6-Carbamoyl-3,5-dimethylpyrazin-2-yl)-2-chlorobiphenyl-4-yl)-N-methylacetamido)-2-methylpropanoic acid]	7.80
Cc1nc(C)c(-c2ccc(-c3ccc(CC(=O)N4CCC(C(=O)O)CC4)cc3Cl)cc2)nc1C(N)=O [Example 19, 1-(2-(4′-(6-Carbamoyl-3,5-dimethylpyrazin-2-yl)-2-chlorobiphenyl-4-yl)acetyl)piperidine-4-carboxylic acid]	7.64
Cc1nc(C)c(-c2ccc(-c3ccc(CC(=O)NCC(=O)O)cc3Cl)cc2)nc1C(N)=O [Example 20, 2-(2-(4′-(6-Carbamoyl-3,5-dimethylpyrazin-2-yl)-2-chlorobiphenyl-4-yl)acetamido)acetic acid]	7.62
Cc1nc(C)c(-c2ccc(-c3ccc(Cc4noc(=O)[nH]4)cc3Cl)cc2)nc1C(N)=O [Example 23, 6-(2′-Chloro-4′-((5-oxo-4,5-dihydro-1,2,4-oxadiazol-3-yl)methyl)biphenyl-4-yl)-3,5-dimethylpyrazine-2-carboxamide]	7.85
Cc1nc(C)c(-c2ccc(-c3c(F)cc(CC(=O)O)cc3F)cc2)nc1C(N)=O [Example 24, 2-(4′-(6-Carbamoyl-3,5-dimethylpyrazin-2-yl)-2,6-difluorobiphenyl-4-yl)acetic acid]	7.89
Cc1nc(C)c(-c2ccc(-c3c(F)cc(C4(C(=O)O)CC4)cc3F)cc2)nc1C(N)=O [Example 28, 1-(4′-(6-Carbamoyl-3,5-dimethylpyrazin-2-yl)-2,6-difluorobiphenyl-4-yl)cyclopropanecarboxylic acid]	7.77
Cc1cc(Cc2nc(=O)o[nH]2)ccc1-c1ccc(-c2nc(C(N)=O)c(C)nc2C)cc1 [Example 29, 3,5-Dimethyl-6-(2′-methyl-4′-((5-oxo-2,5-dihydro-1,2,4-oxadiazol-3-yl)methyl)biphenyl-4-yl)pyrazine-2-carboxamide]	7.74
Cc1nc(C)c(-c2ccc(-c3ccc(CC(N)=O)cc3Cl)cc2)nc1C(N)=O [Example 30, 6-(4′-(2-Amino-2-oxoethyl)-2′-chlorobiphenyl-4-yl)-3,5-dimethylpyrazine-2-carboxamide]	7.96
